{
  "source": "ChEMBL document CHEMBL5678818",
  "about": "“Discovery of potent SOS1 inhibitors that block RAS activation via disruption of the RAS-SOS1 interaction” (Proc Natl Acad Sci U S A, 2019)",
  "key": {"[1]": {"biological_target": "Serine/threonine-protein kinase SIK1 (Homo sapiens) (UniProt P57059)", "sequence (P57059 whole entry)": "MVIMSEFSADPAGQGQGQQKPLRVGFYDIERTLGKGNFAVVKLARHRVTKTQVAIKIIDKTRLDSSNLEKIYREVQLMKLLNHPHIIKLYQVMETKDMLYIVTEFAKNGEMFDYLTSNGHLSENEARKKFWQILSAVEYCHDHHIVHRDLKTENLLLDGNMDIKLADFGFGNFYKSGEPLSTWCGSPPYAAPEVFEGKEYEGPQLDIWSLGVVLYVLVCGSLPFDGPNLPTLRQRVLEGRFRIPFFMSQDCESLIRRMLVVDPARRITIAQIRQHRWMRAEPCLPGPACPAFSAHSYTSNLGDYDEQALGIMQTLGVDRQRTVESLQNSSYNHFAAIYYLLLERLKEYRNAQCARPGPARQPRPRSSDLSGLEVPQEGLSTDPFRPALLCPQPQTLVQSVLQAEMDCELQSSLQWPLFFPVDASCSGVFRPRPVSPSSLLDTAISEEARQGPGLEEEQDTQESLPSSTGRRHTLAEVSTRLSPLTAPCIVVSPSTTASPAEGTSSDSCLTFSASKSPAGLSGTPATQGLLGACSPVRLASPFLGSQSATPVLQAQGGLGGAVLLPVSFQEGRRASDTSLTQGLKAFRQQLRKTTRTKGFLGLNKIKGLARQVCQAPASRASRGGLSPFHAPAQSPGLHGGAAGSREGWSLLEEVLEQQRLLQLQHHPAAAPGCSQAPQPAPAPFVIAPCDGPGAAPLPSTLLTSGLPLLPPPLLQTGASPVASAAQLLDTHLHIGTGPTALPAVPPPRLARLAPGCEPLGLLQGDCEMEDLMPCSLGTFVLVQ", "experiment": "Inhibition of SIK (unknown origin) assessed as residual activity at 100 nM by KINOMEscan analysis relative to control"}, "[2]": {"biological_target": "Calcium/calmodulin-dependent protein kinase type II subunit gamma (Homo sapiens) (UniProt Q13555)", "sequence (Q13555 whole entry)": "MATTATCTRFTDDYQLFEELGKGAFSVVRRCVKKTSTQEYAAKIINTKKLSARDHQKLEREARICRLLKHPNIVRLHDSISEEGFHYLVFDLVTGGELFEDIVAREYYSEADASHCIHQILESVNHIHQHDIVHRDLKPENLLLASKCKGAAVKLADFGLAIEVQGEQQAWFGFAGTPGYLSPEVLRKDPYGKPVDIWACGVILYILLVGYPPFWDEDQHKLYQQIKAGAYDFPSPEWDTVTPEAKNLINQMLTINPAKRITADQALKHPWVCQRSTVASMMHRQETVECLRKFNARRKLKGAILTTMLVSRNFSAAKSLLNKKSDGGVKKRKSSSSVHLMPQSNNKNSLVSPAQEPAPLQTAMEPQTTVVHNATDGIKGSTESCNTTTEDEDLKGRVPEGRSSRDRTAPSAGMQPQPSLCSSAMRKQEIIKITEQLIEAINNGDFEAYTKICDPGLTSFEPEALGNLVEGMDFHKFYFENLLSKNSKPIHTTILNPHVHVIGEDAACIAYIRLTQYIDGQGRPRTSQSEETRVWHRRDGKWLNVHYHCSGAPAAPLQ", "experiment": "Inhibition of CAMK2G (unknown origin) assessed as residual activity at 100 nM by KINOMEscan analysis relative to control"}, "[3]": {"biological_target": "Cyclin-dependent kinase 11B (Homo sapiens) (UniProt P21127)", "experiment": "Inhibition of CDK11 (unknown origin) assessed as residual activity at 100 nM by KINOMEscan analysis relative to control"}, "[4]": {"biological_target": "Receptor tyrosine-protein kinase erbB-2 (Homo sapiens) (UniProt P04626)", "experiment": "Inhibition of ERBB2 (unknown origin) assessed as residual activity at 100 nM by KINOMEscan analysis relative to control"}, "[5]": {"biological_target": "Epithelial discoidin domain-containing receptor 1 (Homo sapiens) (UniProt Q08345)", "experiment": "Inhibition of DDR1 (unknown origin) assessed as residual activity at 100 nM by KINOMEscan analysis relative to control"}, "[6]": {"biological_target": "Interleukin-1 receptor-associated kinase 1 (Homo sapiens) (UniProt P51617)", "sequence (P51617 whole entry, looked up)": "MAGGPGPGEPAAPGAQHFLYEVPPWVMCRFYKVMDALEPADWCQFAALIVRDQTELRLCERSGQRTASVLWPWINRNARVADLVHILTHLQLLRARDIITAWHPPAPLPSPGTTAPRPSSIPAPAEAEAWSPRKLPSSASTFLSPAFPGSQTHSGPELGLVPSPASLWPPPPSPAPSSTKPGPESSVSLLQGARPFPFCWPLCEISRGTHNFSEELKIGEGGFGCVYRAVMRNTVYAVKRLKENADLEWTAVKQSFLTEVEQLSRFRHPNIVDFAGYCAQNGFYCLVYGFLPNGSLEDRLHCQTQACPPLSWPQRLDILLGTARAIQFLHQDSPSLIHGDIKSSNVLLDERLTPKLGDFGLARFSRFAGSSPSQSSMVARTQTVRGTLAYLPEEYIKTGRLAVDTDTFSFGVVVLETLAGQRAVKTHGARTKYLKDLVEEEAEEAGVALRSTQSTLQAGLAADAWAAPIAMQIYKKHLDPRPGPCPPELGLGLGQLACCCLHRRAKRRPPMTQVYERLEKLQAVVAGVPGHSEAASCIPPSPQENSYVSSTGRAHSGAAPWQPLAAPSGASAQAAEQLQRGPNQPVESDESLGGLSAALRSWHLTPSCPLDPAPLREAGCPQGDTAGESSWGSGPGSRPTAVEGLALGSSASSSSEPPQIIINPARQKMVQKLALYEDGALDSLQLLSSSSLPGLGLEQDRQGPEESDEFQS", "experiment": "Inhibition of IRAK1 (unknown origin) assessed as residual activity at 100 nM by KINOMEscan analysis relative to control"}, "[7]": {"biological_target": "Calcium/calmodulin-dependent protein kinase kinase 2 (Homo sapiens) (UniProt Q96RR4)", "experiment": "Inhibition of CAMKK2 (unknown origin) assessed as residual activity at 100 nM by KINOMEscan analysis relative to control"}, "[8]": {"biological_target": "MAP kinase-interacting serine/threonine-protein kinase 2 (Homo sapiens) (UniProt Q9HBH9)", "experiment": "Inhibition of MKNK2 (unknown origin) assessed as residual activity at 100 nM by KINOMEscan analysis relative to control"}, "[9]": {"biological_target": "T1, Serine/threonine-protein kinase Sgk3 (Homo sapiens) (UniProt Q96BR1)", "T1 sequence (whole entry)": "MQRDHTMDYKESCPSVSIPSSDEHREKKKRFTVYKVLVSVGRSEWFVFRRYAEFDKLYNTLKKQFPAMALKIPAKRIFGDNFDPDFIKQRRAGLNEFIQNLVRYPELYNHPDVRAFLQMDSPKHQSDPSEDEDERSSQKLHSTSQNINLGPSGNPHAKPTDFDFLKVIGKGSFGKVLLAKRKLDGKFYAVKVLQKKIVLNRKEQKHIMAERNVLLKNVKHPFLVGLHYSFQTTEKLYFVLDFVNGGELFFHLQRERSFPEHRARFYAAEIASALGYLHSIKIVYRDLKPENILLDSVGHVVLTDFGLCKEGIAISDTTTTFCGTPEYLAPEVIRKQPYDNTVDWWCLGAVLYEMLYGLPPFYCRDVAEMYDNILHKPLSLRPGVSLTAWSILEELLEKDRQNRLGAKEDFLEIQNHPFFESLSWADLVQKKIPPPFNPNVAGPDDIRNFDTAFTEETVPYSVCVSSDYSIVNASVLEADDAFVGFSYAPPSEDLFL", "experiment": "Inhibition of SGK3 (unknown origin) assessed as residual activity at 100 nM by KINOMEscan analysis relative to control"}, "[10]": {"biological_target": "Mitogen-activated protein kinase kinase kinase 9 (Homo sapiens) (UniProt P80192)", "experiment": "Inhibition of MLK1 (unknown origin) assessed as residual activity at 100 nM by KINOMEscan analysis relative to control"}, "[11]": {"biological_target": "Myosin light chain kinase, smooth muscle (Homo sapiens) (UniProt Q15746)", "experiment": "Inhibition of MYLK (unknown origin) assessed as residual activity at 100 nM by KINOMEscan analysis relative to control"}, "[12]": {"test_system": "Tyrosine-protein kinase ABL1 (Homo sapiens), P00519 [T315I]", "experiment": "Inhibition of nonphosphorylated ABL1 T315I mutant (unknown origin) assessed as residual activity at 100 nM by KINOMEscan analysis relative to control"}, "[13]": {"biological_target": "T2, Serine/threonine-protein kinase RIO1 (Homo sapiens) (UniProt Q9BRS2)", "T2 sequence (whole entry)": "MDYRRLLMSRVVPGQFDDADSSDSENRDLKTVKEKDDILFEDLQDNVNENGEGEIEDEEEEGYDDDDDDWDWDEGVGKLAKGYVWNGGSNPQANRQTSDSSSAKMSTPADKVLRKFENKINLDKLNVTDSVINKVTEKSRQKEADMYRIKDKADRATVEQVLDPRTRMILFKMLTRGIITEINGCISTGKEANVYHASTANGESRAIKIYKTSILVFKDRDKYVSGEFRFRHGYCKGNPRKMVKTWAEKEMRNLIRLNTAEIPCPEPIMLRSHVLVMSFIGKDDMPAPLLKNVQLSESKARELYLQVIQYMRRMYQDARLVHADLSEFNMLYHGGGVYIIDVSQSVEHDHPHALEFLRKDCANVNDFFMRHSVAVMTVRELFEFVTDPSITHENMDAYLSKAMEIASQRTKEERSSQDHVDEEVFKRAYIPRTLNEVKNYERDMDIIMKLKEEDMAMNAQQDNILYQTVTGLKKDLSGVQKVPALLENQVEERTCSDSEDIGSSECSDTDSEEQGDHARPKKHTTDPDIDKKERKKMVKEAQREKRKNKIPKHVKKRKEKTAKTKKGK", "experiment": "Inhibition of RIOK1 (unknown origin) assessed as residual activity at 100 nM by KINOMEscan analysis relative to control"}, "[14]": {"biological_target": "Tyrosine-protein kinase HCK (Homo sapiens) (UniProt P08631)", "sequence (P08631 2-526 limits assumed)": "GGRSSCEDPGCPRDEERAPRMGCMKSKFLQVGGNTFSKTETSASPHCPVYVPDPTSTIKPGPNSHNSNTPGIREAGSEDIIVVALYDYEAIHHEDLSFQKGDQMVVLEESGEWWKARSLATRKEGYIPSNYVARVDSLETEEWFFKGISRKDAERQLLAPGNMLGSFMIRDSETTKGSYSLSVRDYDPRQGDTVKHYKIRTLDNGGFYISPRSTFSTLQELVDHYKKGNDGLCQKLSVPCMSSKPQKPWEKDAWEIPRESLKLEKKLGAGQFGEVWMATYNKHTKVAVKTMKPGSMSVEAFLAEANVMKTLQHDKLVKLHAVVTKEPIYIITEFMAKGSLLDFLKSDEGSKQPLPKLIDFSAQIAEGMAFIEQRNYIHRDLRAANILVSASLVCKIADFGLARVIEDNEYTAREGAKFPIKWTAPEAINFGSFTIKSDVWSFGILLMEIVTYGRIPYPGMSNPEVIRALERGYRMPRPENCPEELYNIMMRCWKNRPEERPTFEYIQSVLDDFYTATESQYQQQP", "experiment": "Inhibition of HCK (unknown origin) assessed as residual activity at 100 nM by KINOMEscan analysis relative to control"}, "[15]": {"biological_target": "High affinity nerve growth factor receptor (Homo sapiens) (UniProt P04629)", "sequence (P04629 33-796 limits assumed)": "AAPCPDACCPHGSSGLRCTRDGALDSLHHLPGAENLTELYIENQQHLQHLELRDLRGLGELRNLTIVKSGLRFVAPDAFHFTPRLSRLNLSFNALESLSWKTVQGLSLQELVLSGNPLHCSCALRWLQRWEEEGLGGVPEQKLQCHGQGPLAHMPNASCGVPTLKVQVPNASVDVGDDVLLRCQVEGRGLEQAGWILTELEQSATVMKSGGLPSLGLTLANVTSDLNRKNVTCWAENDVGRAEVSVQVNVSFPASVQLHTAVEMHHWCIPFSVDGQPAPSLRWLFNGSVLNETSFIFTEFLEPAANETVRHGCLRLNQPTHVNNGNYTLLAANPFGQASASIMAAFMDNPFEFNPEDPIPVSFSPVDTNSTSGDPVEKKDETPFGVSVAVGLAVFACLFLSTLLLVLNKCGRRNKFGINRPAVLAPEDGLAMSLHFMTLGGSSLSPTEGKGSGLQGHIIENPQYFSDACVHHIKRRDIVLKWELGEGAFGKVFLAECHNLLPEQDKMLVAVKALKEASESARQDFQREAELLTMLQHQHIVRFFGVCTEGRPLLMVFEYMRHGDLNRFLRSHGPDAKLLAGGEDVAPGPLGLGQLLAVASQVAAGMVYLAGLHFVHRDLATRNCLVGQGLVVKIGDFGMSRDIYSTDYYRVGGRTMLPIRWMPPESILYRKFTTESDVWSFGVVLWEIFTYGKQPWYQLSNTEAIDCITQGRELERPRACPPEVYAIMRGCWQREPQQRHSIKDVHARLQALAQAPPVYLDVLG", "experiment": "Inhibition of TRKA (unknown origin) assessed as residual activity at 100 nM by KINOMEscan analysis relative to control"}, "[16]": {"biological_target": "Ribosomal protein S6 kinase alpha-2 (Homo sapiens) (UniProt Q15349)", "sequence (Q15349 whole entry)": "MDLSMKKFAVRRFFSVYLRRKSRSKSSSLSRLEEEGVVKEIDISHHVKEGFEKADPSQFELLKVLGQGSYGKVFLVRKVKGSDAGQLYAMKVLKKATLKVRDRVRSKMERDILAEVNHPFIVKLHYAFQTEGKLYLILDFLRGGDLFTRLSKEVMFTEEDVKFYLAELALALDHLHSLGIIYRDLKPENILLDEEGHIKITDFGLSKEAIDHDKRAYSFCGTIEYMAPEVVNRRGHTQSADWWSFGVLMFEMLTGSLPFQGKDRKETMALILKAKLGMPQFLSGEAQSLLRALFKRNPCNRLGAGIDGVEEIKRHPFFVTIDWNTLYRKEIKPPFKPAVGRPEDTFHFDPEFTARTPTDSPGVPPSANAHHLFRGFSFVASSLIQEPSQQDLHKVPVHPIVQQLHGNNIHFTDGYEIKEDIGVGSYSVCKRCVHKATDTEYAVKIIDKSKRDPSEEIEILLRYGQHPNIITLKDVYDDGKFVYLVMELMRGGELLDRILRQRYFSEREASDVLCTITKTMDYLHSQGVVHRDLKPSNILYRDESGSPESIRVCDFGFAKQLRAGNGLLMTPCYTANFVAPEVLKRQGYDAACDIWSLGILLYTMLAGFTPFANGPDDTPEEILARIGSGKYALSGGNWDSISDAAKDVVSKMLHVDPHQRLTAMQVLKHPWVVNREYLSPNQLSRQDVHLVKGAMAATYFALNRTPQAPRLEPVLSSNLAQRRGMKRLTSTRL", "experiment": "Inhibition of N-terminal RSK3 […] domain 1 (unknown origin) assessed as residual activity at 100 nM by KINOMEscan analysis relative to control"}, "[17]": {"biological_target": "Beta-adrenergic receptor kinase 1 (Homo sapiens) (UniProt P25098)", "sequence (P25098 whole entry)": "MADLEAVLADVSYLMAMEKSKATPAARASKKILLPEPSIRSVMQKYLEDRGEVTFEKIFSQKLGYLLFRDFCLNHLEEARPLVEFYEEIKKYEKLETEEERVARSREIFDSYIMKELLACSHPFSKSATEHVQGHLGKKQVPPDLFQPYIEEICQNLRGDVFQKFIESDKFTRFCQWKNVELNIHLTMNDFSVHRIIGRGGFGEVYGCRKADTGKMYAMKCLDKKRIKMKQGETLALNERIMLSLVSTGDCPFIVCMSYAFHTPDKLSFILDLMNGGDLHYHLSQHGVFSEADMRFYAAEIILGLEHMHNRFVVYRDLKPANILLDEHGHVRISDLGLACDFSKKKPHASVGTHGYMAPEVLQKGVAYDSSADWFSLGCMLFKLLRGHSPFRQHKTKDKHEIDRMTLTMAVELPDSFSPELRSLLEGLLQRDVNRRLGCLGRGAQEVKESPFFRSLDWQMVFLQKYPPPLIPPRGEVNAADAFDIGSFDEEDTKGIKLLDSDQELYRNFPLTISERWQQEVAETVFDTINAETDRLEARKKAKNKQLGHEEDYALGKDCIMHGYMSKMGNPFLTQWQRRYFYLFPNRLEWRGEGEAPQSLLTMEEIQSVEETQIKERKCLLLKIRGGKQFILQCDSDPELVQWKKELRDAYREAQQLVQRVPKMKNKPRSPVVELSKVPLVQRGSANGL", "experiment": "Inhibition of GRK2 (unknown origin) assessed as residual activity at 1000 nM by KINOMEscan analysis relative to control"}},
  "data": [
    {"compound": "COc1cc2ncnc(N[C@H](C)c3cccc4ccccc34)c2cc1OC", "values": [
      {"measurement": "Activity", "setting": "[1]", "value": 85, "unit": "%"},
      {"measurement": "Activity", "setting": "[2]", "value": 60, "unit": "%"},
      {"measurement": "Activity", "setting": "[3]", "value": 100, "unit": "%"},
      {"measurement": "Activity", "setting": "[4]", "value": 84, "unit": "%"},
      {"measurement": "Activity", "setting": "[5]", "value": 100, "unit": "%"},
      {"measurement": "Activity", "setting": "[6]", "value": 94, "unit": "%"},
      {"measurement": "Activity", "setting": "[7]", "value": 60, "unit": "%"},
      {"measurement": "Activity", "setting": "[8]", "value": 89, "unit": "%"},
      {"measurement": "Activity", "setting": "[9]", "value": 100, "unit": "%"},
      {"measurement": "Activity", "setting": "[10]", "value": 100, "unit": "%"},
      {"measurement": "Activity", "setting": "[11]", "value": 69, "unit": "%"},
      {"measurement": "Activity", "setting": "[12]", "value": 100, "unit": "%"},
      {"measurement": "Activity", "setting": "[13]", "value": 58, "unit": "%"},
      {"measurement": "Activity", "setting": "[14]", "value": 88, "unit": "%"},
      {"measurement": "Activity", "setting": "[15]", "value": 100, "unit": "%"},
      {"measurement": "Activity", "setting": "[16]", "value": 100, "unit": "%"}
    ]},
    {"compound": "COc1cc2nc(C)nc(N[C@H](C)c3cccc(-c4cn[nH]c4)c3)c2cc1OC", "values": [
      {"measurement": "Activity", "setting": "[17]", "value": 62, "unit": "%"}
    ]}
  ]
}
